Reference: patent publication US10206907B2, “Compounds useful for the treatment of degenerative and inflammatory diseases” (GALAPAGOS NV, priority 2008, dated 2019)
pEC50, pIC50: −log10 of the molar value. Where two headings read alike, the source gives them in different places.

What was measured:
[1] = Microsomal stability, rat liver microsomes; format: in vitro ADME; details: percentage of compound remaining after 60 minutes, 3 μM compound
Procedure, shortened: (§1)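 Percent parent remaining after 60 min was determined by LCMS against a time-zero sample quenched before microsome addition. Incubations ran at 37°C with liver microsomes and a G6PDH-based NADPH-regenerating cofactor mix. Quench was MeOH or ACN (1:1).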

[2] = molecular target: Recombinant human JAK3 catalytic domain (Homo sapiens (Human), UniProt P52333); test: JAK3 inhibition assay; format: biochemical; details: semi-quantitative score
Protocol: Plates were washed 6 times with 300 μL per well of a 75 mM phosphoric acid solution and the bottom of the plates was sealed. 40 μL/well of Microscint-20 was added, the top of the plates was sealed and readout was performed using the Topcount (Perkin Elmer). Kinase activity was calculated by subtracting counts per minute (cpm) obtained in the presence of a positive control inhibitor (10 μM staurosporine) from cpm obtained in the presence of vehicle. The ability of a test compound to inhibit this activity was determined as: Percentage inhibition=((cpm determined for sample with test compound present−cpm determined for sample with positive control inhibitor) divided by (cpm determined in the presence of vehicle−cpm determined for sample with positive control inhibitor))*100%.
Dose dilution series were prepared for the compounds enabling the testing of dose-response effects in the JAK3 assay and the calculation of the IC50 for each compound.

[3] = Caco2 permeability (bi-directional); format: in vitro ADME, human; details: human, pH 7.4; for Papp A→B at 1 h, 10 µM: Caco-2, apical to basolateral, read-out: Papp (A2B); for efflux ratio at 1 h, 10 µM: Caco-2, ratio of PappB>A/PappA>B
Protocol: Bi-directional Caco-2 assays were performed as described below.
2×10^5 cells/well were seeded in plating medium consisting of DMEM+GlutaMAXI+1% NEAA+10% FBS (FetalClone II)+1% Pen/Strep. The medium was changed every 2-3 days.
50 μM Lucifer Yellow (Sigma) was added to the donor buffer in all wells to assess integrity of the cell layers by monitoring Lucifer Yellow permeation. As Lucifer Yellow (LY) cannot freely permeate lipophilic barriers, a high degree of LY transport indicates poor integrity of the cell layer.
After a 1 hour incubation at 37° C. while shaking at an orbital shaker at 150 rpm, 70 μL aliquots were taken from both apical (A) and basal (B) chambers and added to 100 μL1 50:50 acetonitrile:water solution containing analytical internal standard (0.5 μM carbamazepine) in a 96 well plate.
Concentrations of compound in the samples were measured by high performance liquid-chromatography/mass spectroscopy (LC-MS/MS).
The Efflux ratios, as an indication of active efflux from the apical cell surface, were calculated using the ratio of PappB>A/PappA>B.
The following assay acceptance criteria were used:
Lucifer yellow permeability: ≤100 nm/s

[4] = molecular target: Recombinant human JAK1 catalytic domain (Homo sapiens (Human), UniProt P23458); test: JAK1 inhibition assay; format: biochemical
Procedure, shortened: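 IC50 values come from dose-response series, with each point expressed as percent inhibition of cpm. Vehicle sets full activity and 10 μM staurosporine sets background. Incorporated radioactivity counted by scintillation after washing with 75 mM phosphoric acid.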

[5] = molecular target: Recombinant human JAK2 catalytic domain (Homo sapiens (Human), UniProt O60674); test: JAK2 inhibition assay; format: biochemical; details: semi-quantitative score
Procedure, shortened: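 Activity was taken as vehicle cpm minus cpm with 10 μM staurosporine, and inhibition was expressed on that scale. Incubation was 90 min at 30 °C, followed by acid quench, phosphoric acid washes and Microscint counting. Compounds were tested as dose series to obtain IC50.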

MMP13 in SW1353 cells = test: OSM/IL-1β signaling assay (MMP13 levels in SW1353 cells); format: cell-based; details: Homo sapiens; SW1353 cells, OSM and IL-1β triggered, MMP13 levels 48 hours after triggering; read-out: MMP13 EC50;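 also: secreted MMP13 captured by antibody, activated with APMA and its activity read by fluorescence, inhibition scaled between vehicle-treated triggered wells (0%) and untriggered wells (100%)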
Protocol: The cells were seeded in 96 well plates at 15,000 cells/well in a volume of 120 μL DMEM (Invitrogen) containing 10% (v/v) FBS and 1% penicillin/streptomycin (InVitrogen) incubated at 37° C. […] MMP13 activity was measured using an antibody capture activity assay. […] Next the wells were washed twice with PBS+0.05% Tween followed by MMP13 activation by addition of 35 μL of a 1.5 mM 4-Aminophenylmercuric acetate (APMA) (Sigma, A9563) solution and incubation at 37° C. for 1 hour. […] Percentage inhibition=((fluorescence determined in the presence of vehicle−fluorescence determined for sample with test compound present) divided by (fluorescence determined in the presence of vehicle−fluorescence determined for sample without trigger))*100%.

[6] = tested on: JAK-STAT signalling in HeLa cells; test: JAK-STAT signalling assay (OSM-triggered pSTAT1(2)-luciferase reporter in HeLa cells); format: cell-based; details: Homo sapiens; HeLa cells, OSM-triggered pSTAT1(2)-luciferase reporter; read-out: STAT signalling EC50
Procedure, shortened: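 Read-out is oncostatin M–driven pSTAT1(2)-luciferase activity, corrected by co-transfected LacZ β-galactosidase, in transiently transfected HeLa cells cultured overnight at 37 °C, 10% CO2. Inhibition percentages against positive and negative controls were plotted across doses to derive EC50.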

[7] = Microsomal stability, human liver microsomes; format: in vitro ADME; details: percentage of compound remaining after 60 minutes, 3 μM compound
Procedure, shortened: as §1

Sequence of Recombinant human JAK1 catalytic domain (P23458 850-1154): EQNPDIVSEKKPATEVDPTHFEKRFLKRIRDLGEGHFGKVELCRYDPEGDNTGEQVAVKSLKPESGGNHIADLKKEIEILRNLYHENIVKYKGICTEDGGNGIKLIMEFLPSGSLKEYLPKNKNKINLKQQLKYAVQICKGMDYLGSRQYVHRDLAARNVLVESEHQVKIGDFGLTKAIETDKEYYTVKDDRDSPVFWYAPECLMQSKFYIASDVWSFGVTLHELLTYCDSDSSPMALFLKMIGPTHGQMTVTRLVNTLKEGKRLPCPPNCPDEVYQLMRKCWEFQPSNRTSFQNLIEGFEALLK
Sequence of Recombinant human JAK3 catalytic domain (P52333 781-1124): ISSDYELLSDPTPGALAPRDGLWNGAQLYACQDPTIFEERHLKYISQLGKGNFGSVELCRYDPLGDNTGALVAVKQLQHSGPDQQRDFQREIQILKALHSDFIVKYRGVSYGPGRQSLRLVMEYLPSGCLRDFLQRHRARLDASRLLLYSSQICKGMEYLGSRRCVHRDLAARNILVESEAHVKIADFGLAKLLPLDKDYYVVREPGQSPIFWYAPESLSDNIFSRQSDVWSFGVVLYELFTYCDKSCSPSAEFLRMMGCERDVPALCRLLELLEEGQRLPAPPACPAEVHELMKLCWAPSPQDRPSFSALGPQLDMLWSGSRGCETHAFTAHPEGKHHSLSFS
Sequence of Recombinant human JAK2 catalytic domain (O60674 808-1132): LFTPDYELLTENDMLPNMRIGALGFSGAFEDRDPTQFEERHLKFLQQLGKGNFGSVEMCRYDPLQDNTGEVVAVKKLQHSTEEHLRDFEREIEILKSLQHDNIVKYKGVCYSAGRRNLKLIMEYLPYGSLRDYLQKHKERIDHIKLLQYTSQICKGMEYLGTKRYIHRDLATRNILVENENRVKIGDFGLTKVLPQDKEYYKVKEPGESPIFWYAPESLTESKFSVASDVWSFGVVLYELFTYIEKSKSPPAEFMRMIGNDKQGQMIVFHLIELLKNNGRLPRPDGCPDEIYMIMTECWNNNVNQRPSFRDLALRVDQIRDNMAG

| Microsomal Stability Rat (%) [1] | pIC50 [2] | Papp A→B at 1 h, 10 µM [3] | efflux ratio at 1 h, 10 µM [3] | pIC50 ([4]; semi-quantitative score) | pIC50 [5] | pEC50 (MMP13 in SW1353 cells) | pEC50 [6] | Microsomal Stability Human (%) [7] | Structure (SMILES) | pIC50 [4] |
| --- | --- | --- | --- | --- | --- | --- | --- | --- | --- | --- |
| ** (** 26-50) | < 6.00 | 7.78 ×10⁻⁶ cm/s | 5.2 | > 7.00 | 6.30 to 7.00 | < 6.00 | 6.30 to 7.00 | *** (*** 51-75) | O=C(NCc1cccc(F)c1)c1ccc(-c2cccc3nc(NC(=O)C4CC4)nn23)cc1 [Compound 29, 4-(2-(cyclopropanecarboxamido)-[1,2,4]triazolo[1,5-a]pyridin-5-yl)-N-(3-fluorobenzyl)benzamide] | – |
| * (* 0-25) | 6.00 to 6.30 | – | 1.31 | > 7.00 | > 7.00 | 6.00 to 6.30 | < 6.00 | * (* 0-25) | O=C(Nc1nc2cccc(-c3ccc(NCc4ccccc4)cc3)n2n1)C1CC1 [Compound 72, N-(5-(4-(benzylamino)phenyl)-[1,2,4]triazolo[1,5-a]pyridin-2-yl)cyclopropanecarboxamide] | – |
| * (* 0-25) | < 6.00 | 18.2 ×10⁻⁶ cm/s | 2.5 | > 7.00 | 6.30 to 7.00 | 6.00 to 6.30 | < 6.00 | * (* 0-25) | O=C(Nc1nc2cccc(-c3ccc(C(=O)N4CCCN(Cc5ccccc5)CC4)cc3)n2n1)C1CC1 [Compound 75, N-(5-(4-(4-benzyl-1,4-diazepane-1-carbonyl)phenyl)-[1,2,4]triazolo[1,5-a]pyridin-2-yl)cyclopropanecarboxamide] | – |
| * (* 0-25) | 6.30 to 7.00 | 8.14 ×10⁻⁶ cm/s | 5.09 | > 7.00 | > 7.00 | 6.30 to 9.00 | 6.00 to 6.30 | * (* 0-25) | O=C(Nc1nc2cccc(-c3ccc(NS(=O)(=O)CCc4ccccc4)cc3)n2n1)C1CC1 [Compound 76, N-(5-(4-(2-phenylethylsulfonamido)phenyl)-[1,2,4]triazolo[1,5-a]pyridin-2-yl)cyclopropanecarboxamide] | – |
| **** (**** 76-100) | 6.30 to 7.00 | – | 1.5 | > 7.00 | > 7.00 | 6.00 to 6.30 | < 6.00 | **** (**** 76-100) | O=C(Nc1nc2cccc(-c3ccc(OCc4ccc(C(F)(F)F)nc4)cc3)n2n1)C1CC1 [Compound 78, N-(5-(4-((6-(trifluoromethyl)pyridin-3-yl)methoxy)phenyl)-[1,2,4]triazolo[1,5-a]pyridin-2-yl)cyclopropanecarboxamide] | – |
| * (* 0-25) | 6.30 to 7.00 | 20.9 ×10⁻⁶ cm/s | 1.81 | > 7.00 | > 7.00 | 6.00 to 6.30 | 6.30 to 7.00 | * (* 0-25) | O=C(NCCc1ccccc1)c1ccc(-c2cccc3nc(NC(=O)C4CC4)nn23)cc1 [Compound 87, 4-(2-(cyclopropanecarboxamido)-[1,2,4]triazolo[1,5-a]pyridin-5-yl)-N-phenethylbenzamide] | – |
| * (* 0-25) | < 6.00 | – | – | > 7.00 | 6.30 to 7.00 | < 6.00 | < 6.00 | * (* 0-25) | O=C(Nc1nc2cccc(-c3ccc(NS(=O)(=O)CCc4cccc(F)c4)cc3)n2n1)C1CC1 [Compound 88, N-(5-(4-(2-(3-fluorophenyl)ethylsulfonamido)phenyl)-[1,2,4]triazolo[l,5-a]pyridin-2-yl)cyclopropanecarboxamide] | – |
| ** (** 26-50) | < 6.00 | – | – | > 7.00 | 6.00 to 6.30 | < 6.00 | < 6.00 | ** (** 26-50) | CCCCN(CCCN1CCOCC1)C(=O)c1ccc(-c2cccc3nc(NC(=O)C4CC4)nn23)cc1 [Compound 90, N-butyl-4-(2-(cyclopropanecarboxamido)-[1,2,4]triazolo[1,5-a]pyridin-5-yl)-N-(3-morpholinopropyl)benzamide] | – |
| * (* 0-25) | < 6.00 | 34.6 ×10⁻⁶ cm/s | 1 | > 7.00 | > 7.00 | < 6.00 | < 6.00 | * (* 0-25) | CN(CCc1ccccc1)C(=O)c1ccc(-c2cccc3nc(NC(=O)C4CC4)nn23)cc1 [Compound 96, 4-(2-(cyclopropanecarboxamido)-[1,2,4]triazolo[1,5-a]pyridin-5-yl)-N-methyl-N-phenethylbenzamide] | – |
| ** (** 26-50) | 6.30 to 7.00 | 23.8 ×10⁻⁶ cm/s | 2.61 | > 7.00 | > 7.00 | 6.00 to 6.30 | 6.30 to 7.00 | * (* 0-25) | O=C(NCCc1ccc(C(F)(F)F)cc1)c1ccc(-c2cccc3nc(NC(=O)C4CC4)nn23)cc1 [Compound 97, 4-(2-(cyclopropanecarboxamido)-[1,2,4]triazolo[1,5-a]pyridin-5-yl)-N-(4-(trifluoromethyl)phenethyl) benzamide] | – |
| ** (** 26-50) | < 6.00 | – | – | > 7.00 | 6.30 to 7.00 | < 6.00 | < 6.00 | ** (** 26-50) | O=C(Nc1nc2cccc(-c3ccc(OCCn4cccn4)cc3)n2n1)C1CC1 [Compound 98] | – |
| * (* 0-25) | 6.30 to 7.00 | 38.9 ×10⁻⁶ cm/s | 0.81 | > 7.00 | > 7.00 | 6.30 to 9.00 | 6.30 to 7.00 | ** (** 26-50) | O=C(Nc1nc2cccc(-c3ccc(OCc4ncon4)cc3)n2n1)C1CC1 [Compound 99, N-(5-(4-((1,2,4-oxadiazol-3-yl)methoxy)phenyl)-[1,2,4]triazolo[1,5-a]pyridin-2-yl)cyclopropanecarboxamide] | – |
| * (* 0-25) | < 6.00 | – | – | > 7.00 | 6.30 to 7.00 | 6.00 to 6.30 | < 6.00 | * (* 0-25) | O=C(NCCCc1ccccc1)c1ccc(-c2cccc3nc(NC(=O)C4CC4)nn23)cc1 [Compound 114, 4-(2-(cyclopropanecarboxamido)-[1,2,4]triazolo[1,5-a]pyridin-5-yl)-N-(3-phenylpropyl)benzamide] | – |
| * (* 0-25) | 6.30 to 7.00 | 11.2 ×10⁻⁶ cm/s | – | > 7.00 | – | < 6.00 | 6.00 to 6.30 | * (* 0-25) | O=C(Nc1nc2cccc(-c3ccc(CC(=O)N4CCC(C(F)(F)F)CC4)cc3)n2n1)C1CC1 [Compound 319, Cyclopropanecarboxylic acid (5-{4-[2-oxo-2-(4-trifluoromethyl-piperidin-1-yl)-ethyl]-phenyl}-[1,2,4]triazolo[1,5-a]pyridin-2 yl)-amide] | – |

| Structure (SMILES) | Microsomal Stability Rat (%) [1] | pIC50 [2] | Papp A→B at 1 h, 10 µM [3] | efflux ratio at 1 h, 10 µM [3] | pIC50 ([4]; semi-quantitative score) | pIC50 [5] | pEC50 (MMP13 in SW1353 cells) | pEC50 [6] | Microsomal Stability Human (%) [7] | pIC50 [4] |
| --- | --- | --- | --- | --- | --- | --- | --- | --- | --- | --- |
| NC(=O)c1ccc(COc2ccc(-c3cccc4nc(NC(=O)C5CC5)nn34)cc2)cn1 [Compound 192, 5-{4-[2-(Cyclopropanecarbonyl-amino)-[1,2,4]triazolo[1,5-a]pyridin-5-yl]-phenoxymethyl}-pyridine-2-carboxylic Acid Amide] | **** (**** 76-100) | 6.30 to 7.00 | – | 2 | – | – | 6.00 to 6.30 | 6.30 to 7.00 | **** (**** 76-100) | > 7.00 |
